In ChEMBL document CHEMBL1201862, “PubChem BioAssay data set” (2004):
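48-hour exposure; five concentrations; linearly interpolated endpoints. At the GI50, growth is halved.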 Activity calls are given as the source filed them. Cut-off read from the data, not from the text of the source: active = GI50 up to about 1.1 µM and inactive = higher.

Tests used:
Test in all cases: NCI tumour cell line growth inhibition, 48 h
786-0 = tested on: 786-0
A549 = tested on: A549
ACHN = tested on: ACHN
BT-549 = tested on: BT-549
CAKI-1 = tested on: CAKI-1
COLO 205 = tested on: COLO 205
HCT-15 = tested on: HCT-15
HOP-62 = tested on: HOP-62
IGROV-1 = tested on: IGROV-1
K562 = tested on: K562
KM12 = tested on: KM12
MDA-MB-231 = tested on: MDA-MB-231
MDA-N = tested on: MDA-N
MOLT-4 = tested on: MOLT-4
NCI-H460 = tested on: NCI-H460
SF-268 = tested on: SF-268
SW-620 = tested on: SW-620
UO-31 = tested on: UO-31
HL-60 = tested on: HL-60
SK-OV-3 = tested on: SK-OV-3

| SMILES | GI50 (786-0) | GI50 (A549) | GI50 (ACHN) | GI50 (BT-549) | GI50 (CAKI-1) | GI50 (COLO 205) | GI50 (HCT-15) [µM] | GI50 (HOP-62) | GI50 (IGROV-1) | GI50 (K562) | GI50 (KM12) | GI50 (MDA-MB-231) | GI50 (MDA-N) | GI50 (MOLT-4) | GI50 (NCI-H460) | GI50 (SF-268) | GI50 (SW-620) | GI50 (UO-31) | GI50 (HL-60) | GI50 (SK-OV-3) |
| --- | --- | --- | --- | --- | --- | --- | --- | --- | --- | --- | --- | --- | --- | --- | --- | --- | --- | --- | --- | --- |
| Nc1nc(O)c2c(n1)NCN(CCCN1CCOCC1)C2 | > 100 µM (inactive) | > 100 µM (inactive) | > 100 µM (inactive) | > 100 µM (inactive) | > 100 µM (inactive) | > 100 µM (inactive) | > 100 | > 100 µM (inactive) | > 100 µM (inactive) | > 100 µM (inactive) | > 100 µM (inactive) | > 100 µM (inactive) | > 100 µM (inactive) | 46.7 µM (inactive) | > 100 µM (inactive) | > 100 µM (inactive) | > 100 µM (inactive) | > 100 µM (inactive) |  |  |
| CC1CN=C(N(C)C(=O)Nc2ccc(Cl)c(Cl)c2)S1 (stereo not given) | 35.6 µM (inactive) | 27.7 µM (inactive) | 11 µM (inactive) |  | 7.53 µM (inactive) | 40.8 µM (inactive) | 21.3 | 21.8 µM (inactive) | 27.2 µM (inactive) | 23.4 µM (inactive) | 32.4 µM (inactive) | 28.1 µM (inactive) | 31 µM (inactive) | 27.9 µM (inactive) | 36 µM (inactive) | 27.9 µM (inactive) | 29.5 µM (inactive) | 29.5 µM (inactive) | 22.5 µM (inactive) | > 100 µM (inactive) |
| CCN(CC)c1ccc2cc(-c3nnc(-c4ccccc4O)o3)c(=O)oc2c1 | 8.99 µM (inactive) | 13.6 µM (inactive) | 10.2 µM (inactive) | 5.75 µM (inactive) | 11.5 µM (inactive) | 7.66 µM (inactive) | 5.75 | 5.51 µM (inactive) | 3.12 µM (inactive) | 5.96 µM (inactive) | 12.1 µM (inactive) |  | 12.5 µM (inactive) | 3.03 µM (inactive) | 7.08 µM (inactive) | 6.92 µM (inactive) | 5.75 µM (inactive) | 10.4 µM (inactive) | 4.56 µM (inactive) | 17.1 µM (inactive) |
| CN(N=O)C(=N)NC(=O)c1ccccc1 | > 100 µM (inactive) | > 100 µM (inactive) | > 100 µM (inactive) | > 100 µM (inactive) | > 100 µM (inactive) | > 100 µM (inactive) | > 100 | > 100 µM (inactive) | > 100 µM (inactive) | > 100 µM (inactive) | > 100 µM (inactive) | > 100 µM (inactive) | > 100 µM (inactive) | > 100 µM (inactive) | 19.3 µM (inactive) | > 100 µM (inactive) | > 100 µM (inactive) | > 100 µM (inactive) |  | > 100 µM (inactive) |
| CCOC(=O)C(=O)/C(=C/NC(=S)Nc1ccc(Cl)c(Cl)c1)C(=O)OCC | 89.7 µM (inactive) | > 100 µM (inactive) | > 100 µM (inactive) |  | 64.7 µM (inactive) | 67.9 µM (inactive) | > 100 | > 100 µM (inactive) | 85.9 µM (inactive) |  | 86.5 µM (inactive) | > 100 µM (inactive) | 61.2 µM (inactive) | 29.4 µM (inactive) | > 100 µM (inactive) | > 100 µM (inactive) | 87.9 µM (inactive) | 27.5 µM (inactive) | 15.9 µM (inactive) | > 100 µM (inactive) |
| O=C(NNc1nc(-c2ccccc2)cs1)Nc1ccccc1 | 30.2 µM (inactive) | 19.5 µM (inactive) | 37.5 µM (inactive) | 25.3 µM (inactive) | 43.3 µM (inactive) | 19.6 µM (inactive) | 26.6 | 18.7 µM (inactive) | 34.8 µM (inactive) | 34.4 µM (inactive) | 32.9 µM (inactive) | 21.4 µM (inactive) | 24.2 µM (inactive) | 27.7 µM (inactive) | 24 µM (inactive) | 27.5 µM (inactive) | 37.6 µM (inactive) | 25.4 µM (inactive) |  | 22.6 µM (inactive) |
| O=C1/C(=C2/C(=O)N(c3ccccc3)c3ccccc32)Nc2ccccc21 | 15 µM (inactive) | 37.2 µM (inactive) | 21.2 µM (inactive) | 45 µM (inactive) | 45.5 µM (inactive) | 24.7 µM (inactive) | 50 | 31.8 µM (inactive) | 19.8 µM (inactive) | 42.2 µM (inactive) | > 100 µM (inactive) | 18.9 µM (inactive) | > 100 µM (inactive) | 35.2 µM (inactive) | 46.2 µM (inactive) | 36.4 µM (inactive) | 63.1 µM (inactive) | 43.7 µM (inactive) |  | 43.6 µM (inactive) |
| O=S(=O)(/N=c1/[nH]c2ccccc2n1S(=O)(=O)c1ccccc1)c1ccccc1 | 67 µM (inactive) | 42.4 µM (inactive) | 26.5 µM (inactive) | 41.2 µM (inactive) | 65.8 µM (inactive) | 53.5 µM (inactive) | 36.3 | 56.5 µM (inactive) | 48 µM (inactive) | 32.7 µM (inactive) | 33.1 µM (inactive) | > 100 µM (inactive) | 56.2 µM (inactive) | 29.2 µM (inactive) |  | 42.4 µM (inactive) | 30.4 µM (inactive) | 36.3 µM (inactive) |  | 50 µM (inactive) |
| CCCCNC1CCC2(SCCS2)c2[nH]c3ccccc3c21 (stereo not given) | 4.53 µM (inactive) | 56.9 µM (inactive) | 27.9 µM (inactive) | 23.4 µM (inactive) | 2.04 µM (inactive) | 17.5 µM (inactive) | 4.78 | > 53.8 µM (inactive) | 25.4 µM (inactive) | 10.1 µM (inactive) | 6.37 µM (inactive) | 16.6 µM (inactive) |  | 3.97 µM (inactive) | 33.3 µM (inactive) | 19.9 µM (inactive) | 25.8 µM (inactive) | 20.4 µM (inactive) | 3.16 µM (inactive) | 49.8 µM (inactive) |
| COc1cc(C2c3cc4c(cc3OC(N3CCOCC3)C2C)OCO4)cc(OC)c1O (stereo not given) | 10.1 µM (inactive) | 8.91 µM (inactive) | 12.2 µM (inactive) | 7.43 µM (inactive) | 11.5 µM (inactive) | 15.6 µM (inactive) | 2.87 | 9.57 µM (inactive) | 7.6 µM (inactive) | 3.38 µM (inactive) | 4.73 µM (inactive) | 10.1 µM (inactive) |  | 3.18 µM (inactive) | 5.09 µM (inactive) | 17.7 µM (inactive) | 3.84 µM (inactive) | 14.8 µM (inactive) | 3.52 µM (inactive) | 5.69 µM (inactive) |
| C=CCNC(=S)N/C=C(\C(=O)OCC)C(=O)C(=O)OCC | > 100 µM (inactive) | > 100 µM (inactive) | > 100 µM (inactive) |  | > 100 µM (inactive) | > 100 µM (inactive) | > 100 | > 100 µM (inactive) | > 100 µM (inactive) | > 100 µM (inactive) | > 100 µM (inactive) | > 100 µM (inactive) | > 100 µM (inactive) | > 100 µM (inactive) | > 100 µM (inactive) | > 100 µM (inactive) | > 100 µM (inactive) | > 100 µM (inactive) | > 100 µM (inactive) | > 100 µM (inactive) |
| O=C(c1cc(Cl)ccc1Cl)N1CCN(c2cccc(Cl)c2)CC1 | 15.3 µM (inactive) | 11 µM (inactive) | 22.8 µM (inactive) | 8.61 µM (inactive) | 17.7 µM (inactive) |  | 8.85 | 16 µM (inactive) | 10.8 µM (inactive) | 3.92 µM (inactive) | 6.07 µM (inactive) | 5.6 µM (inactive) | 1.87 µM (inactive) | 8.51 µM (inactive) | 14.6 µM (inactive) | 27.9 µM (inactive) | 24.2 µM (inactive) | 19.7 µM (inactive) | 38.4 µM (inactive) |  |
| COc1cc(/C=C/C(=O)CC(=O)/C=C/c2cc(C)c(O)c(OC)c2)cc(C)c1O | > 100 µM (inactive) | > 100 µM (inactive) | > 100 µM (inactive) | > 100 µM (inactive) | > 100 µM (inactive) | > 100 µM (inactive) | > 100 | > 100 µM (inactive) | > 100 µM (inactive) | > 100 µM (inactive) | > 100 µM (inactive) | > 100 µM (inactive) |  | > 100 µM (inactive) | > 100 µM (inactive) | > 100 µM (inactive) | > 100 µM (inactive) | > 100 µM (inactive) | 38.9 µM (inactive) | > 100 µM (inactive) |
| COc1ccc(C2(c3ccc(OC)cc3)OC(=O)c3cccc4cccc2c34)cc1 | 5.41 µM (inactive) | 8.11 µM (inactive) | 7.93 µM (inactive) | 11.4 µM (inactive) | 2.96 µM (inactive) | 2.81 µM (inactive) | 4.15 | 6.98 µM (inactive) | 5.93 µM (inactive) | 3.36 µM (inactive) | 3.85 µM (inactive) | > 100 µM (inactive) |  | 4.58 µM (inactive) | 4.69 µM (inactive) | > 100 µM (inactive) | 5.18 µM (inactive) | > 100 µM (inactive) |  | 6.46 µM (inactive) |
| COc1ccc(/C=C/c2cc(OC)cc(=O)o2)cc1 [YANGONIN] | 36.1 µM (inactive) | > 100 µM (inactive) | 61.7 µM (inactive) |  | > 100 µM (inactive) | > 100 µM (inactive) | > 100 | 40 µM (inactive) | > 100 µM (inactive) | 63.1 µM (inactive) | 57.4 µM (inactive) | > 100 µM (inactive) | 91.6 µM (inactive) | > 100 µM (inactive) | > 100 µM (inactive) | 60.1 µM (inactive) | > 100 µM (inactive) | > 100 µM (inactive) | > 100 µM (inactive) | 91.4 µM (inactive) |
